Laboratory results published in US6855693B2, “Peptides for activation and inhibition of δPKC” (The Board of Trustees of the Leland Stanford Junior …, priority 2001, dated 2005).
No end group written: not given here.

What was measured:
[1] = tested on: isolated adult rat cardiac myocytes; test: Simulated ischemia in isolated cardiac myocytes, cell damage by osmotic fragility test (trypan blue uptake); assay type: cell-based
Procedure: In another study, the δPKC activator peptide, ψδRACK, and the δPKC inhibitor peptide, δV1-1 were administered to isolated rat cardiac myocytes to determine the role of δPKC in protection from ischemia. As described in Example 2, the Antennapedia carrier-peptide conjugate of δV1-1 and/or ψδRACK was introduced into isolated adult rat cardiac myocytes ten minutes prior to prolonged ischemia. Cell damage was assessed using an osmotic fragility test by measuring uptake of trypan blue.
Adult male Wistar rat cardiomyocytes were prepared on a Langendorff apparatus (van der Heide, R. S. et al.) by collagenase treatment (Armstrong, S. et al.). The cells were treated with δV1-1 at concentrations of 10 nM, 100 nM, 500 nM, and 1 μM in the presence or absence of 1 μM ψδRACK. βPKC-selective activator was used as a control.
For […] ischemia, adult myocytes treated in microcentrifuge tubes with δV1-1 and/or ψδRACK peptides conjugated to the carrier were washed twice with degassed glucose-free incubation buffer and pelleted. On top of a minimal amount of buffer, the cell pellets were overlaid with either a micro-balloon (Sig Manufacturing, Montezuma, Iowa) or with degassed buffer saturated with nitrogen, and sealed with an airtight top. Tubes were then incubated at 37 C for either 180 minutes or 90 minutes.
Cell damage was assessed by an osmotic fragility test by measuring the uptake of trypan blue added in a hypotonic (85 mosM) solution. Similar results were also obtained by using a live-dead kit (Molecular Probes) or measuring the release of […] to the medium using a kit (Sigma) as previously described (Chen, et al., 1999; Gray et al., 1997; Mackay et al., 1999).

[2] = molecular target: T1, αPKC (Rattus norvegicus, UniProt P05696); test: Translocation of αPKC in primary cardiac myocytes (Western blot); assay type: cell-based; settings: data not shown
T1 construct: blots probed with anti-δPKC, anti-αPKC and anti-εPKC antibodies; endogenous in cells; host or cells: primary neonatal rat cardiac myocytes
Procedure: As described in Example 1, the δV1-1 and ψδRACK peptides were analyzed to determine whether the peptides had activity, and if so, whether the activity was as an agonist or an antagonist of δPKC. As will be shown, δV1-1, δV1-2 and δV1-5 are δPKC antagonists and ψδRACK is a δPKC agonist. In these studies, the δV1-1 and ψδRACK peptides were modified with a carrier peptide by cross-linking via an N-terminal Cys-Cys bond to the Drosophila Antennapedia homeodomain (SEQ ID NO:8; Théodore, L., et al.; Johnson, J. A. et al., 1996b). […] Translocation of δPKC isozyme was assessed by Western blot analysis cystosolic and particulate fractions of treated cells. Subcellular localization of δPKC isozyme was assessed by immunofluorescence by probing the blot with […], and anti-εPKC antibodies. Translocation was expressed as the amount of isozyme in the particulate fraction over the amount of isozyme in non-treated cells. […]
Translocation of δPKC isozyme was assessed by using δPKC isozyme-specific antibodies in Western blot analysis (Santa Cruz Biotechnology). […] Subcellular localization of dPKC isozymes was assessed by chemiluminescence of blots probed with anti-δPKC, anti-αPKC and anti-εPKC antibodies. […] Changes in translocation of δPKC isozyme were also determined by immunofluoresence study of treated and fixed cells (Gray et al., 1997). […]

[3] = tested on: whole rat hearts; test: Ex vivo Langendorff perfused whole hearts, peptide before 30 min global ischemia, creatine phosphokinase release
Source text: In another study performed in support of the invention, the δPKC selective inhibitor peptide, δV1-1, or the activator peptide, ψδRACK, were delivered to whole hearts ex vivo to determine if the peptides have activity when introduced extracellulary to a whole organ. As described in Example 3, δV1-1 and ψδRACK peptides were conjugated to a carrier peptide, a Tat-derived peptide. The peptides were delivered into Langendorff perfused rat hearts prior to induction of an ischemic period. After perfusion with the peptides, global ischemia was effected for 30 minutes. After the 30 minute ischemic period, the amount of creatine phosphokinase (CPK) released was monitored during a 30 minute reperfusion period.
Adult, male rats were anesthetized with i.p. avertin, and their hearts were rapidly removed and cannulated via the aorta for perfusion as described in the art (Colbert, M. C. et al.) using Langendorff set-up. Care was taken to have the hearts perfused within 90 seconds of removal. The hearts were perfused with oxygenated Krebs-Henseleit solution comprised of, in […], NaCl 120; KCl 5.8; NaHCO3 25; NaH2O4 1.2; MgSO4 1.2; CaCl2 1.0; and dextrose 10, pH 7.4 at 37 C.
After a 10-20 minute equilibration period, the hearts were perfused with δV1-1 peptide (SEQ ID NO:4) or with ψδRACK peptide (SEQ ID NO:6), prepared as described in Example 1 but conjugated to a Tat-derived peptide (Tat 47-57, SEQ ID NO:9), for 20 minutes. Perfusion was maintained at a constant flow of 10 mL/min with Krebs-Hanseleit solution containing 0.5 μM of the appropriate peptide. The Langendorff method employed used retrograde flow from the […] and into the coronary arteries, bypassing the pulmonary arteries.
To induce global ischemia, flow was interrupted for 30 minutes. After the ischemic event, the hearts were re-perfused for 30-60 minutes. During reperfusion, ischemia-induced cell damage was determined by measuring the activity of creatine phosphokinase (CPK) (absorbance at 520 nm) in the perfusate using a Sigma kit. […]

[4] = 0.5 μM Tat-conjugated peptide for 20 minutes before 30 minute global ischemia

| Sequence | cardiac myocyte damage after ischemic insult ([1]; 1 μM ψδRACK, 180 minute ischemia) | effect of co-incubation on the δV1-1 protection from ischemia-induced damage ([1]; co-incubation with δV1-1, 180 minute ischemia, ψδRACK 1 μM) | ψδRACK-induced increase in cell damage ([1]; ischemia shortened to 90 minutes) | translocation of αPKC [2] | enhancement of cardiac damage induced by ischemia (CPK release) [3, 4] | protection from ischemia-induced cell damage ([1]; 10 nM, 100 nM, 500 nM, 1 μM, given 10 minutes prior to 180 minute ischemia) | effect of co-treatment on the ψδRACK-induced increase in cell damage ([1]; 90 minute ischemia, co-treatment with ψδRACK) | release of creatine kinase ([3]; 0.5 μM Tat-conjugated peptide before 30 minute global ischemia, reperfusion period) | protection against ischemic damage in an intact heart [3, 4] |
| --- | --- | --- | --- | --- | --- | --- | --- | --- | --- |
| MRAAEDPM (also: conjugated to Antennapedia or Tat carrier; listed as Rattus norvegicus) [ψδRACK, tested conjugated to Antennapedia or Tat carrier] | slight increase | prevented | became significant | without affecting | about 30% |  |  |  |  |
| SFNSYELGSL (also: conjugated to Antennapedia or Tat carrier; listed as Rattus norvegicus) [δV1-1, tested conjugated to Antennapedia or Tat carrier] |  |  |  | did not inhibit |  | concentration-dependent level of protection | reversed | decreased | greater than 50% |
